Source: patent US8916586B2, “Anti-angiogenic compound” (University College Dublin—National University of Ireland, …, priority 2011, dated 2014)
Entries after “also recorded” stand apart in the source; their conditions may differ.

Assays:
[1] = tested on: dermal-derived normal human microvascular endothelial cells (HMVEC-d); assay: HMVEC-d cell migration (CIM-plate 16, xCELLigence); type: cell-based; settings: 100 nM (FIG. 13)
Protocol: (§1) HMVEC-d were purchased from Clonetics, San Diego, Calif., USA. Cells were maintained in complete Endothelial Cell Medium (Clonetics® EGM®-2-MV BulletKit®) containing 500 ml of Endothelial Cell Basal Medium-2 and supplemented with hEGF, 0.5 ml; Hydrocortisone, 0.2 ml; GA-1000, 0.5 ml; FBS, 25 ml; VEGF, 0.5 ml; hFGF-B, 2.0 ml; R3-IGF-1, 0.5 ml; Ascorbic Acid, 0.5 ml in a 37° C. humidified atmosphere of 5% CO2/95% air. HMVEC-d were used for experiments between passages 4-8.
Continuous monitoring of HMVEC-d cultures cell migration was recorded using a CIM-plate 16 (RTCA DP Analyser, xCELLigence System, Roche) with 5% serum serving as chemoattractant and following the manufacturer's protocol. Each well is composed of an upper chamber, a membrane with an interdigitated gold electrode on the underside of the microporous membrane (facing the lower chamber) and a lower chamber. Cells that have migrated to the lower chamber containing the chemoattractant attach to the gold electrodes and generate electrical impedance. Impedance readings are taken from an electronic sensor plate and reflect their attachment levels. […] The upper chamber was then clicked into position and 30 μl of serum-free media were added to cover the membrane surface. […] 5% CO2 humidified atmosphere and the Cell Index (CI) was recorded every 15 min. […]

[2] = tested on: dermal-derived normal human microvascular endothelial cells (HMVEC-d); assay: In vitro HMVEC-d tube formation assay on Matrigel; type: cell-based; settings: 100 nM, 20 hr
Protocol: as §1
Matrigel (Becton Dickenson) basement membrane matrix was used to examine HMVEC-d tube formation. Matrigel (50 μl) was plated in 96 well culture plate wells after thawing on ice and allowed to polymerise at 37° C. 5% CO2 humidified atmosphere for 1 hr. HMVEC-d were removed from culture, trypsinised, and resuspended in full strength EGM growth medium. Cells were seeded at a density of 50×10^4 cells/cm^2 and incubated for 20 hr at 37° C. 5% CO2 humidified atmosphere. Endothelial cell tubule formation was assessed using phase contrast microscopy and photographed. A connecting branch between two discrete ECs was counted as one tube. The tube analysis was determined from 3 sequential fields (magnification×10) focusing on the surface of the matrigel.

zebrafish larvae = assay: Visual function by optokinetic response (OKR) in zebrafish larvae; type: in vivo; settings: treated from day 2-5 or day 3-5
Protocol: Visual function was assessed using the optokinetic response, a behavioural assay that tests the ability of larval zebrafish to track moving stripes (Brockerhoff 2006). […] For these experiments the compounds were screened in zebrafish larvae as described above except that the drug (compound 11B) was added at either day 1, 2, 3 or 4, and all treated larvae were analysed at day 5.

[3] = tested on: mouse model of oxygen induced retinopathy (OIR); assay: Mouse oxygen-induced retinopathy (OIR) model of ocular neovascularisation; type: in vivo; settings: for avascular area of the retina in treated eyes: postnatal day 12-17, intravitreal
Protocol: To assess the ability of compound 11B to inhibit ocular neovascularisation in mammalian eyes, 11B was tested in the mouse model of oxygen induced retinopathy (OIR). […] 11B was injected intravitreally into a mouse model of oxygen-induced retinopathy (OIR). The OIR model was generated by placing postnatal day 7 (P7) mouse pups into hyperoxia (75% oxygen) for 5 days and then removing them to normoxia (21%) on postnatal day 12 (P12). The hyperoxic (high oxygen) environment causes retinal blood vessels to regress between P7 and P12. The normoxic environment on P12 is a relatively hypoxic (low oxygen) environment for the mice and causes the growth of new blood vessels (angiogenesis). For all samples, eyes were enucleated, fixed, flat mounted and then stained with an isolectin antibody to visualise the blood vessels. Blood vessels were quantified and those treated with lead compounds compared to controls.

[4] = tested on: VEGF secreted from explant cultures of human colorectal cancers; assay: VEGF secretion from human colorectal tumour explants (ELISA); type: cell-based; settings: 72 hours
Protocol: (§2) Human colorectal tumour samples were taken directly from the pathology laboratory after surgery once adequate material was taken for diagnostic testing. The tumour samples were washed and stored in DMSO/tumour conditioning media (TCM). The samples were snap-frozen in liquid nitrogen and stored at −80° C. until compound testing was performed. Prior to compound testing, the tumours were thawed and incubated in fresh TCM for 24 hours. […] The TCM solutions were collected and stored at −20° C. and the remaining tumour explants were snap-frozen in liquid nitrogen and stored at −80° C. The protein content of each tumour sample was determined using the BCA protein assay. ELISA was used to determine the levels of VEGF, IL-8, MCP-1, GRO-α, IL-1β and IL-6. The secretion data were normalised according to the tumour sample's protein content.

[5] = tested on: IL-6 secreted from explant cultures of human colorectal cancers; assay: IL-6 secretion from human colorectal tumour explants (ELISA); type: cell-based; settings: 72 hours
Protocol: as §2

[6] = tested on: hyaloid vasculature in zebrafish; assay: Zebrafish developmental angiogenesis assay: number of primary branches of hyaloid vasculature on dissected lens; type: in vivo
[7] = 1 μM and 10 μM tested, concentration not given at place

Oc1ccccc1/C=C/c1ccc2ccccc2n1 [11B]
effect on HMVEC-d cell migration [1]: no significant effect; also recorded: neither 11B nor 11F had a significant effect; also recorded: neither 11B nor 11F had significant effects
inhibition of HMVEC-d tubule formation [2]: significantly inhibits
visual function, optokinetic response (OKR) (zebrafish larvae): no significant effect; also recorded: not statistically different from controls
avascular area of the retina in treated eyes ([3]; 0.5 μM): ~33%
avascular area of the retina in treated eyes ([3]; 3 μM): ~30%
increase in avascular retina relative to the avascular area in the P17 control ([3]; intraocular injections): ~2.4 fold
inhibition of ocular neovascularisation in OIR model ([3]; intravitreal injection): inhibited angiogenesis; also recorded: can inhibit intraocular neovascularisation
level of VEGF secreted by human tumour explants [4, 7]: significantly reduced
level of VEGF secreted by human tumour explants ([4]; 10 μM): significantly reduces
level of IL-6 secreted by human tumour explants [5, 7]: significantly reduced
level of IL-6 secreted by human tumour explants ([5]; 1 μM): significantly reduces
level of IL-6 secreted by human tumour explants ([5]; 10 μM): significantly reduces
number of primary branches of hyaloid vasculature ([6]; 5 μM, treated day 2-5): significant reduction
number of primary branches of hyaloid vasculature ([6]; 5 μM, treated day 3-5): no significant effect
number of primary branches of hyaloid vasculature ([6]; 5 μM, treated day 4-5): no significant effect
number of primary branches of hyaloid vasculature ([6]; 10 μM, treated day 2-5): significant reduction
number of primary branches of hyaloid vasculature ([6]; 10 μM, treated day 3-5): significant reduction
number of primary branches of hyaloid vasculature ([6]; 10 μM, treated day 4-5): no effect
time-dependence of inhibition of developmental angiogenesis in the eye ([6]; drug added at day 1, 2, 3 or 4, analysed at day 5): time-dependent effect; also recorded: time-dependent manner

COc1cc2c(C3CCCN3C)cnc(Cc3ccc4c(c3)OCO4)c2cc1OC (stereo not drawn) [11F, 1-(1,3-benzodioxol-5-ylmethyl)-6,7-dimethoxy-4-(1-methyl-2-pyrrolidinyl)isoquinoline]
effect on HMVEC-d cell migration [1]: no significant effect; also recorded: neither 11B nor 11F had a significant effect; also recorded: neither 11B nor 11F had significant effects
reduction of tubule formation compared to control [2]: 9%
level of VEGF secreted by human tumour explants [4, 7]: significantly reduced
level of VEGF secreted by human tumour explants ([4]; 1 μM): significantly reduced
level of VEGF secreted by human tumour explants ([4]; 10 μM): significantly reduced
